Source: patent US5026832A, “9-dihydro-9-O-alkyldesmycosin derivatives” (Toyo Jozo Co., Ltd., priority 1988, dated 1991)
≈ marks a conversion by molar mass, not a printed value. Read-outs that look alike come from different tables or passages of the source.

Legend:
[1] = test system: Staphylococcus aureus Smith; experiment: Antimicrobial activity (minimum inhibitory concentration); type: cell-based; settings: about 10^6 /ml
Procedure: (§1) Minimum inhibitory concentrations (MIC, μg/ml) of various compounds of formula (I) against various microorganisms (about 10^6 /ml) were measured.

[2] = test system: Staphylococcus aureus FDA 209P JC-1; experiment: as above; type: cell-based; settings: FDA209P; Staphylococcus aureus FDA 209P JC-1, about 10^6 /ml
Procedure: as §1

[3] = test system: Staphylococcus epidermidis sp-al-1; experiment: as above; type: cell-based; settings: SPAL1; Staphylococcus epidermidis sp-al-1, about 10^6 /ml
Procedure: as §1

[4] = test system: Staphylococcus pyogenes 1022; experiment: as above; type: cell-based; settings: Staphylococcus pyogenes 1022, about 10^6 /ml
Procedure: as §1

[5] = test system: Staphylococcus pyogenes S-23; experiment: as above; type: cell-based; settings: Staphylococcus aureus, S23; Staphylococcus pyogenes S-23, about 10^6 /ml
Procedure: as §1

[6] = test system: Staphylococcus pyogenes N.Y.5; experiment: as above; type: cell-based; settings: Staphylococcus pyogenes N.Y.5, about 10^6 /ml
Procedure: as §1

[7] = test system: Staphylococcus aureus MS 353; experiment: as above; type: cell-based; settings: MS353; Staphylococcus aureus MS 353, about 10^6 /ml
Procedure: as §1

[8] = test system: Staphylococcus aureus MS 353 C36; experiment: as above; type: cell-based; settings: MS353C36; Staphylococcus aureus MS 353 C36, about 10^6 /ml
Procedure: as §1

[9] = test system: Staphylococcus pyogenes S-23; experiment: Infectious disease curing effect by oral administration in infected mice; type: in vivo, ICR male mice; settings: Staphylococcus aureus
Procedure: A pre-incubated test microorganism, Staphylococcus pyogenes S-23, was suspended in a 5% mucin solution and inoculated into the ICR male mice (8 mice per group) abdomen in an amount of 2×10^2. After 1 hour, Compounds (I) of the present invention dissolved or suspended in a phosphate buffer were orally administered to the mice. The mice were inspected for 5 days to determine ED50 (mg/kg) by the Van der Waerden method.

[10] = S23, 120 h, oral, 1 hour after abdominal inoculation of Staphylococcus pyogenes S-23, inspected for 5 days, Van der Waerden method, read-out: ED50

| Compound | MIC [1] [µg/mL] | MIC [2] [µg/mL] | MIC [3] [µg/mL] | MIC [4] [µg/mL] | MIC [5] [µg/mL] | MIC [6] [µg/mL] | MIC [7] [µg/mL] | MIC [8] [µg/mL] | ED50 [9, 10] [mg/kg] | ED50 ([9]; S23, po, 120 h) [mg/kg] |
| --- | --- | --- | --- | --- | --- | --- | --- | --- | --- | --- |
| CCOC1C=CC(C)=CC(COC2OC(C)C(O)C(OC)C2OC)C(CC)OC(=O)CC(O)C(C)C(OC2OC(C)C(O)C(N(C)C)C2O)C(CC=O)CC1C (stereo not shown) [Compound 2, 9-dihydro-9-O-ethyldesmycosin] | 0.2 (≈ 0.249 µM) | 0.1 (≈ 0.125 µM) | 0.1 (≈ 0.125 µM) | > 100 | ≤ 0.05 | ≤ 0.05 | 0.2 (≈ 0.249 µM) | 0.1 (≈ 0.125 µM) | – | – |
| CCC1OC(=O)CC(O)C(C)C(OC2OC(C)C(O)C(N(C)C)C2O)C(CC=O)CC(C)C(OCc2ccccc2)C=CC(C)=CC1COC1OC(C)C(O)C(OC)C1OC (stereo not shown) [Compound 18, 9-dihydro-9-O-benzyldesmycosin] | 0.39 (≈ 0.451 µM) | 0.2 (≈ 0.231 µM) | 0.39 (≈ 0.451 µM) | 100 (≈ 116 µM) | 0.1 (≈ 0.116 µM) | 0.1 (≈ 0.116 µM) | 0.2 (≈ 0.231 µM) | 0.2 (≈ 0.231 µM) | – | – |
| CCC1OC(=O)CC(O)C(C)C(OC2OC(C)CC(N(C)C)C2O)C(CC=O)CC(C)C(OC)C=CC(C)=CC1CN(C)C (stereo not shown) [Compound 7, 9-dihydro-9-O-methyl-23-demycinosyloxy-23-dimethylamino-4'-deoxydesmycosin] | 0.78 (≈ 1.25 µM) | 0.2 (≈ 0.32 µM) | 0.2 (≈ 0.32 µM) | > 100 | 0.2 (≈ 0.32 µM) | 0.2 (≈ 0.32 µM) | 0.2 (≈ 0.32 µM) | 0.2 (≈ 0.32 µM) | 100 to 200 | – |
| CCCOC1C=CC(C)=CC(COC2OC(C)C(O)C(OC)C2OC)C(CC)OC(=O)CC(O)C(C)C(OC2OC(C)C(O)C(N(C)C)C2O)C(CC=O)CC1C (stereo not shown) [Compound 3, 9-dihydro-9-O-propyldesmycosin] | 0.39 (≈ 0.478 µM) | 0.1 (≈ 0.123 µM) | 0.2 (≈ 0.245 µM) | > 100 | 0.1 (≈ 0.123 µM) | ≤ 0.05 | 0.2 (≈ 0.245 µM) | 0.2 (≈ 0.245 µM) | – | – |
| CCC1OC(=O)CC(O)C(C)C(OC2OC(C)C(O)C(N(C)C)C2O)C(CC=O)CC(C)C(OCC(C)C)C=CC(C)=CC1COC1OC(C)C(O)C(OC)C1OC (stereo not shown) [Compound 17, 9-dihydro-9-O-isobutyldesmycosin] | 0.78 (≈ 0.94 µM) | 0.39 (≈ 0.47 µM) | 0.39 (≈ 0.47 µM) | > 100 | 0.2 (≈ 0.241 µM) | 0.1 (≈ 0.12 µM) | 0.39 (≈ 0.47 µM) | 0.39 (≈ 0.47 µM) | – | – |
| CCC1OC(=O)CC(O)C(C)C(OC2OC(C)C(O)C(N(C)C)C2O)C(CC=O)CC(C)C(OCC2CCC2)C=CC(C)=CC1COC1OC(C)C(O)C(OC)C1OC (stereo not shown) [Compound 15, 9-dihydro-9-O-cyclobutylmethyldesmycosin] | 0.78 (≈ 0.926 µM) | 0.39 (≈ 0.463 µM) | 0.78 (≈ 0.926 µM) | 50 (≈ 59.4 µM) | 0.2 (≈ 0.238 µM) | ≤ 0.05 | 0.39 (≈ 0.463 µM) | 0.39 (≈ 0.463 µM) | – | – |
| CCC1OC(=O)CC(O)C(C)C(OC2OC(C)C(O)C(N(C)C)C2O)C(CC=O)CC(C)C(OC)C=CC(C)=CC1COC1OC(C)C(O)C(OC)C1OC (stereo not shown) [Compound 1, 9-dihydro-9-O-methyldesmycosin] | 0.39 (≈ 0.495 µM) | 0.1 (≈ 0.127 µM) | ≤ 0.05 | – | ≤ 0.05 | ≤ 0.05 | 0.2 (≈ 0.254 µM) | 0.2 (≈ 0.254 µM) | 100 to 200 | – |
| CCCOC1C=CC(C)=CC(COC2OC(C)C(O)C(OC)C2OC)C(CC)OC(=O)CC(OC(=O)CC)C(C)C(OC2OC(C)C(O)C(N(C)C)C2O)C(CC=O)CC1C (stereo not shown) [Compound 11, 9-dihydro-9-O-propyl-3-O-propionyldesmycosin] | 0.78 (≈ 0.894 µM) | 0.2 (≈ 0.229 µM) | 0.39 (≈ 0.447 µM) | 100 (≈ 115 µM) | 0.2 (≈ 0.229 µM) | 0.1 (≈ 0.115 µM) | 0.2 (≈ 0.229 µM) | 0.39 (≈ 0.447 µM) | – | – |
| CCC(=O)OC1CC(=O)OC(CC)C(COC2OC(C)C(O)C(OC)C2OC)C=C(C)C=CC(OC)C(C)CC(CC=O)C(OC2OC(C)C(O)C(N(C)C)C2O)C1C (stereo not shown) [Compound 5, 9-dihydro-9-O-methyl-3-O-propionyldesmycosin] | 0.39 (≈ 0.462 µM) | 0.1 (≈ 0.118 µM) | 0.2 (≈ 0.237 µM) | 50 (≈ 59.2 µM) | 0.1 (≈ 0.118 µM) | 0.05 (≈ 0.0592 µM) | 0.2 (≈ 0.237 µM) | 0.2 (≈ 0.237 µM) | 84 | – |
| CCC1OC(=O)CC(OC(C)=O)C(C)C(OC2OC(C)C(O)C(N(C)C)C2O)C(CC=O)CC(C)C(OC)C=CC(C)=CC1COC1OC(C)C(O)C(OC)C1OC (stereo not shown) [Compound 12, 9-dihydro-9-O-methyl-3-O-acetyldesmycosin] | 0.39 (≈ 0.47 µM) | 0.2 (≈ 0.241 µM) | 0.39 (≈ 0.47 µM) | > 100 | 0.1 (≈ 0.12 µM) | 0.1 (≈ 0.12 µM) | 0.2 (≈ 0.241 µM) | 0.2 (≈ 0.241 µM) | – | – |
| CCC1OC(=O)CC(O)C(C)C(OC2OC(C)CC(N(C)C)C2O)C(CC=O)CC(C)C(=O)C=CC(C)=CC1COC1OC(C)C(O)C(OC)C1OC (stereo not shown) [4'-Deoxydesmycosin, reference compound] | – | – | – | – | – | – | – | – | > 200 | – |
| CCC1OC(=O)CC(O)C(C)C(OC2OC(C)C(O)C(N(C)C)C2O)C(CC=O)CC(C)C(=O)C=CC(C)=CC1COC1OC(C)C(O)C(OC)C1OC (stereo not shown) [Desmycosin, 4'-demycarosyltylosin] | 0.39 (≈ 0.505 µM) | 0.2 (≈ 0.259 µM) | 0.2 (≈ 0.259 µM) | > 100 | ≤ 0.05 | ≤ 0.05 | 0.2 (≈ 0.259 µM) | 0.2 (≈ 0.259 µM) | – | – |
| CC[C@H]1OC(=O)C[C@@H](O)[C@H](C)[C@@H](O[C@@H]2O[C@H](C)[C@@H](O[C@H]3C[C@@](C)(O)[C@@H](O)[C@H](C)O3)[C@H](N(C)C)[C@H]2O)[C@@H](CC=O)C[C@@H](C)C(=O)/C=C/C(C)=C/[C@@H]1CO[C@@H]1O[C@H](C)[C@@H](O)[C@@H](OC)[C@H]1OC [Tylosin, reference compound] | – | – | – | – | – | – | – | – | – | > 200 |
| CCC1OC(=O)CC(OC(C)=O)C(C)C(OC2OC(C)CC(N(C)C)C2O)C(CC=O)CC(C)C(OC)C=CC(C)=CC1COC1OC(C)C(O)C(OC)C1OC (stereo not shown) [Compound 13, 9-dihydro-9-O-methyl-3-O-acetyl-4'-deoxydesmycosin] | 0.39 (≈ 0.479 µM) | 0.2 (≈ 0.246 µM) | 0.39 (≈ 0.479 µM) | > 100 | 0.1 (≈ 0.123 µM) | 0.1 (≈ 0.123 µM) | 0.2 (≈ 0.246 µM) | 0.2 (≈ 0.246 µM) | – | – |
| CCCCOC1C=CC(C)=CC(COC2OC(C)C(O)C(OC)C2OC)C(CC)OC(=O)CC(O)C(C)C(OC2OC(C)C(O)C(N(C)C)C2O)C(CC=O)CC1C (stereo not shown) [Compound 4, 9-dihydro-9-O-butyldesmycosin] | 0.78 (≈ 0.94 µM) | 0.39 (≈ 0.47 µM) | 0.39 (≈ 0.47 µM) | > 100 | 0.2 (≈ 0.241 µM) | 0.1 (≈ 0.12 µM) | 0.39 (≈ 0.47 µM) | 0.39 (≈ 0.47 µM) | – | – |
| CCC1OC(=O)CC(O)C(C)C(OC2OC(C)C(O)C(N(C)C)C2O)C(CC=O)CC(C)C(OCC2CC2)C=CC(C)=CC1COC1OC(C)C(O)C(OC)C1OC (stereo not shown) [Compound 14, 9-dihydro-9-O-cyclopropylmethyldesmycosin] | 0.39 (≈ 0.471 µM) | 0.2 (≈ 0.242 µM) | 0.2 (≈ 0.242 µM) | > 100 | ≤ 0.05 | 0.1 (≈ 0.121 µM) | 0.2 (≈ 0.242 µM) | 0.2 (≈ 0.242 µM) | – | – |
| CCC1OC(=O)CC(O)C(C)C(OC2OC(C)C(O)C(N(C)C)C2O)C(CC=O)CC(C)C(OCC2CCCCC2)C=CC(C)=CC1COC1OC(C)C(O)C(OC)C1OC (stereo not shown) [Compound 16, 9-dihydro-9-O-cyclohexylmethyldesmycosin] | 1.56 (≈ 1.79 µM) | 0.78 (≈ 0.896 µM) | 1.56 (≈ 1.79 µM) | 50 (≈ 57.5 µM) | 0.39 (≈ 0.448 µM) | 0.39 (≈ 0.448 µM) | 0.39 (≈ 0.448 µM) | 0.78 (≈ 0.896 µM) | – | – |
| CCC1OC(=O)CC(O)C(C)C(OC2OC(C)CC(N(C)C)C2O)C(CC=O)CC(C)C(OC)C=CC(C)=CC1COC1OC(C)C(O)C(OC)C1OC (stereo not shown) [Compound 6, 9-dihydro-9-O-methyl-4'-deoxydesmycosin] | 0.39 (≈ 0.505 µM) | 0.1 (≈ 0.13 µM) | 0.1 (≈ 0.13 µM) | – | ≤ 0.05 | ≤ 0.05 | 0.2 (≈ 0.259 µM) | 0.2 (≈ 0.259 µM) | 64.8 | – |
| CCOC1C=CC(C)=CC(COC2OC(C)C(O)C(OC)C2OC)C(CC)OC(=O)CC(OC(=O)CC)C(C)C(OC2OC(C)C(O)C(N(C)C)C2O)C(CC=O)CC1C (stereo not shown) [Compound 10, 9-dihydro-9-O-ethyl-3-O-propionyldesmycosin] | 0.78 (≈ 0.909 µM) | 0.2 (≈ 0.233 µM) | 0.78 (≈ 0.909 µM) | > 100 | 0.39 (≈ 0.455 µM) | 0.1 (≈ 0.117 µM) | 0.39 (≈ 0.455 µM) | 0.39 (≈ 0.455 µM) | – | – |
| CCOC1C=CC(C)=CC(COC2OC(C)C(O)C(OC)C2OC)C(CC)OC(=O)CC(OC(C)=O)C(C)C(OC2OC(C)C(O)C(N(C)C)C2O)C(CC=O)CC1C (stereo not shown) [Compound 8, 9-dihydro-9-O-ethyl-3-O-acetyldesmycosin] | 0.78 (≈ 0.924 µM) | 0.2 (≈ 0.237 µM) | 0.39 (≈ 0.462 µM) | > 100 | 0.1 (≈ 0.118 µM) | 0.1 (≈ 0.118 µM) | 0.39 (≈ 0.462 µM) | 0.39 (≈ 0.462 µM) | 50 | – |
| CCCOC1C=CC(C)=CC(COC2OC(C)C(O)C(OC)C2OC)C(CC)OC(=O)CC(OC(C)=O)C(C)C(OC2OC(C)C(O)C(N(C)C)C2O)C(CC=O)CC1C (stereo not shown) [Compound 9, 9-dihydro-9--O-propyl-3-O-acetyldesmycosin] | 0.78 (≈ 0.909 µM) | 0.39 (≈ 0.455 µM) | 0.78 (≈ 0.909 µM) | > 100 | 0.2 (≈ 0.233 µM) | 0.2 (≈ 0.233 µM) | 0.39 (≈ 0.455 µM) | 0.78 (≈ 0.909 µM) | – | – |
